The source of these data is patent publication US20260242353A1, “HETEROARYL DERIVATIVES AS DDRs INHIBITORS” (CHIESI FARMACEUTICI S.P.A., priority 2022, published 2026).

One experiment has as its target T1, DDR1 (Homo sapiens, UniProt Q08345).
T1 construct: purchased Carna Biosciences
Put plainly: LanthaScreen Europium Kinase Binding assay, DDR1. The following applies: 5 nM DDR1, 20 nM Kinase Tracer 178, 1 h at rt; Ki from IC50 by Cheng-Prusoff; read-out: Ki DDR1. On the procedure: (§1) DDR1 and DDR2 binding assays were performed using Life Technologies LanthaScreen™ Europium Kinase Binding assay. The compounds were incubated with 5 nM DDR1 (Carna Biosciences) or 5 nM DDR2 (Life Technologies) for 1 h at rt in white 384-well OptiPlate (PerkinElmer), containing 20 nM or 10 nM Kinase Tracer 178 respectively and 2 nM Europium labelled anti-GST antibody (Life Technologies) in assay buffer (50 mM HEPES pH 7.5, 10 mM MgCI2, 1 mM EGTA and 0.01% BRIJ35). The ratio of fluorescence emission 665 nm/615 nm after excitation at 340 nm was obtained using the Tecan Spark 20M plate reader. IC50 values were determined in GraphPad Prism 7.0 software, using 4 parameter model: log(inhibitor) vs. response. IC50 values were converted in Ki using the Cheng-Prusoff equation (Ki=IC50/(1+[Tracer]/Kd).

A further experiment has as its target T2, DDR2 (Homo sapiens, UniProt Q16832).
T2 construct: purchased Life Technologies
T2 sequence (Q16832 22-855): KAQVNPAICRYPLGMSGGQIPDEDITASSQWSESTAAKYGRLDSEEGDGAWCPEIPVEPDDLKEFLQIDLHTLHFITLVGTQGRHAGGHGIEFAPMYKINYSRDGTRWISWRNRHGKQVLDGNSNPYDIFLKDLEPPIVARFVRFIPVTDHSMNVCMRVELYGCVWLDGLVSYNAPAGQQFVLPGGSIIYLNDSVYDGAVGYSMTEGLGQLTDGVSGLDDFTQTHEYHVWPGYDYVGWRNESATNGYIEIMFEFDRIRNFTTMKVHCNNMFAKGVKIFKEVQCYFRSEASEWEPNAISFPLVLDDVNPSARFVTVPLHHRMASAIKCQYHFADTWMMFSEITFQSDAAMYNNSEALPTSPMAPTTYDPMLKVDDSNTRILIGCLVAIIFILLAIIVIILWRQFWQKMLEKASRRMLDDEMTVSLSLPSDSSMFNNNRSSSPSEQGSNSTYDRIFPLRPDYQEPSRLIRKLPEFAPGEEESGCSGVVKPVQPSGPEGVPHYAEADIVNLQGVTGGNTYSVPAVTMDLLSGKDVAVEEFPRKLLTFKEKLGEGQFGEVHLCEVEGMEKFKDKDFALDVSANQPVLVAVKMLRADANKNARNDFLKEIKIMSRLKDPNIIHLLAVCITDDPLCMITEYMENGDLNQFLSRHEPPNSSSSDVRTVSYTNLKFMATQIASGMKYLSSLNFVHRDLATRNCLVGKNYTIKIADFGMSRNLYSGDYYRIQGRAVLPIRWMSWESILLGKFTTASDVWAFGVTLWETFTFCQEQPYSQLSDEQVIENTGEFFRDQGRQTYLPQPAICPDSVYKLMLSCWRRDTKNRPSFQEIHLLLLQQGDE
The experiment can be described thus: LanthaScreen Europium Kinase Binding assay, DDR2. Conditions: 5 nM DDR2, 10 nM Kinase Tracer 178, 1 h at rt; Ki from IC50 by Cheng-Prusoff; read-out: Ki DDR2. On the procedure:
as §1
(In TR-FRET formats the signal depends on donor and acceptor labels being close together.)

T1 sequence (Q08345 19-913): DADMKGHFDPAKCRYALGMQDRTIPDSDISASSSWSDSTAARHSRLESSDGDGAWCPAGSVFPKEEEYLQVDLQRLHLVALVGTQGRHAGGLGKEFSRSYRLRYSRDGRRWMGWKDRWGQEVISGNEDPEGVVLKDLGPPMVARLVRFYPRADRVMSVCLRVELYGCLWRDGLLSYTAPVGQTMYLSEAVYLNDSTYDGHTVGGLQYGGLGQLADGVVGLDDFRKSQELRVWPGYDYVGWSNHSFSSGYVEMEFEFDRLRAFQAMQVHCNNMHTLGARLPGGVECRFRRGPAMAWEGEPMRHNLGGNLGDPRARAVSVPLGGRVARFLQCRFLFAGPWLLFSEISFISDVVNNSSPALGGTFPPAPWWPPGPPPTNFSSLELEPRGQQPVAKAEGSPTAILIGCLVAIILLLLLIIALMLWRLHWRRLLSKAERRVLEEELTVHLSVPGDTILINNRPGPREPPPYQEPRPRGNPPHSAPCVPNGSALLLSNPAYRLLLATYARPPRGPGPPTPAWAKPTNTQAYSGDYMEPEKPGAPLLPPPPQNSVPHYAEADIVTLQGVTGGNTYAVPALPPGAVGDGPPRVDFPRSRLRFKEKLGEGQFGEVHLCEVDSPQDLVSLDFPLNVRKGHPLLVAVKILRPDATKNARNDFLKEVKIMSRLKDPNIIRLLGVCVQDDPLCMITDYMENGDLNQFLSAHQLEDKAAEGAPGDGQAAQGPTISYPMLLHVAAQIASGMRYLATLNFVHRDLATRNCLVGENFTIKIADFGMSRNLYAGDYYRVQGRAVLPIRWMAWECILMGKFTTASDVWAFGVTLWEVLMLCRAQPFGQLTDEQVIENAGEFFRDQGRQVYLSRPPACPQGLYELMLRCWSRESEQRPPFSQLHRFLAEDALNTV

On to `Cc1ccc(C(=O)Nc2cncc(C(F)(F)F)c2)cc1[C@@H]1CN(c2cncnc2)C[C@H]1CO` (racemic) [Example 104, 3-((3R,4S)-3-(4-(hydroxymethyl)-1-(pyrimidin-5-yl)pyrrolidin-3-yl)-4-methyl-N-(5-(trifluoromethyl)pyridin-3-yl)benzamide and 3-((3S,4R)-3-(4-(hydroxymethyl)-1-(pyrimidin-5-yl)pyrrolidin-3-yl)-4-methyl-N-(5-(trifluoromethyl)pyridin-3-yl)benzamide], for which the Ki is less than 5 nM on DDR1 and 5 to 25 nM on DDR2.
Taken in the same sequence, the figures for `Cc1ccc(C(=O)Nc2cncc(C(F)(F)F)c2)cc1[C@@H]1CN(c2cncnc2)C[C@H]1O` (racemic) [Example 105, 3-((3S,4R)-3-(4-hydroxy-1-(pyrimidin-5-yl)pyrrolidin-3-yl)-4-methyl-N-(5-(trifluoromethyl)pyridin-3-yl)benzamide and 3-((3R,4S)-4-hydroxy-1-(pyrimidin-5-yl)pyrrolidin-3-yl)-4-methyl-N-(5-(trifluoromethyl)pyridin-3-yl)benzamide] were less than 5 nM and 5 to 25 nM.
The corresponding values for `COc1ccc(C(=O)Nc2cncc(C(F)(F)F)c2)cc1C1CCN(c2cncnc2)C1` (racemic) [Example 111, 4-methoxy-3-(1-(pyrimidin-5-yl)pyrrolidin-3-yl)-N-(5-(trifluoromethyl)pyridin-3-yl)benzamide] are less than 5 nM and 5 to 25 nM.
Taken in the same sequence, the figures for `COc1ccc(C(=O)Nc2cncc(C(F)(F)F)c2)cc1C1CCN(c2cncnc2)C1` (single isomer, unassigned) [Example 109, 4-methoxy-3-(1-(pyrimidin-5-yl)pyrrolidin-3-yl)-N-(5-(trifluoromethyl)pyridin-3-yl)benzamide] were less than 5 nM and less than 5 nM.
As for `COc1ccc(C(=O)Nc2cncc(C(F)(F)F)c2)cc1C1CCN(c2cncnc2)C1` (single isomer, unassigned) [Example 110, 4-methoxy-3-(1-(pyrimidin-5-yl)pyrrolidin-3-yl)-N-(5-(trifluoromethyl)pyridin-3-yl)benzamide], the Ki on DDR1 was less than 5 nM; at DDR2, 5 to 25 nM.
The corresponding values for `COc1ccc(C(=O)Nc2cncc(C(F)(F)F)c2)cc1C1CCN(c2cnn3cccnc23)C1` (single isomer, unassigned) [Example 114, 4-methoxy-3-(1-(pyrazolo[1,5-a]pyrimidin-3-yl)pyrrolidin-3-yl)-N-(5-(trifluoromethyl)pyridin-3-yl)benzamide] are less than 5 nM and 5 to 25 nM.
The corresponding values for `COc1ccc(C(=O)Nc2cncc(C(F)(F)F)c2)cc1C1CCN(c2cnn3cccnc23)C1` (single isomer, unassigned) [Example 115, 4-methoxy-3-(1-(pyrazolo[1,5-a]pyrimidin-3-yl)pyrrolidin-3-yl)-N-(5-(trifluoromethyl)pyridin-3-yl)benzamide] are less than 5 nM and 5 to 25 nM.
The corresponding values for `O=C(Nc1cncc(C(F)(F)F)c1)c1ccc(OC(F)F)c(C2CCN(c3cncnc3)C2)c1` (single isomer, unassigned) [Example 116, 4-(difluoromethoxy)-3-(1-(pyrimidin-5-yl)pyrrolidin-3-yl)-N-(5-(trifluoromethyl)pyridin-3-yl)benzamide] are less than 5 nM and less than 5 nM.
Regarding `O=C(Nc1cncc(C(F)(F)F)c1)c1ccc(OC(F)F)c(C2CCN(c3cncnc3)C2)c1` (single isomer, unassigned) [Example 117, 4-(difluoromethoxy)-3-(1-(pyrimidin-5-yl)pyrrolidin-3-yl)-N-(5-(trifluoromethyl)pyridin-3-yl)benzamide], the inhibitory constant (Ki) on DDR1 and at DDR2 was less than 5 nM in each case.
On to `NC(=O)c1cc(N2CCC(c3cc(C(=O)Nc4cncc(C(F)(F)F)c4)ccc3OC(F)F)C2)ccn1` (single isomer, unassigned) [Example 118, 4-(3-(2-(difluoromethoxy)-5-((5-(trifluoromethyl)pyridin-3-yl)carbamoyl)phenyl)pyrrolidin-1-yl)picolinamide], for which the Ki on DDR1 is less than 5 nM; at DDR2, 5 to 25 nM.
Taken in the same sequence, the figures for `NC(=O)c1cc(N2CCC(c3cc(C(=O)Nc4cncc(C(F)(F)F)c4)ccc3OC(F)F)C2)ccn1` (single isomer, unassigned) [Example 119, 4-(3-(2-(difluoromethoxy)-5-((5-(trifluoromethyl)pyridin-3-yl)carbamoyl)phenyl)pyrrolidin-1-yl)picolinamide] were less than 5 nM and 5 to 25 nM.
In the case of `O=C(Nc1cncc(C(F)(F)F)c1)c1ccc(C(F)F)c(C2CCN(c3cncnc3)C2)c1` (single isomer, unassigned) [Example 121], the Ki on DDR1 and at DDR2 was less than 5 nM throughout.
As to `Cc1ccc(C(=O)Nc2cncc(C(F)(F)F)c2)cc1C1CN(c2cncnc2)CC1O` (single isomer, unassigned) [Example 122, 3-(4-hydroxy-1-(pyrimidin-5-yl)pyrrolidin-3-yl)-4-methyl-N-(5-(trifluoromethyl)pyridin-3-yl)benzamide], the inhibition constant (Ki) at DDR1 is less than 5 nM; at DDR2, 5 to 25 nM.
Turning to `Cc1ccc(C(=O)Nc2cncc(C(F)(F)F)c2)cc1C1CCN(c2cnn3cccnc23)C1` (stereo in doubt) [Example 90, 4-methyl-3-[(3R)-1-pyrazolo[1,5-a]pyrimidin-3-ylpyrrolidin-3-yl]-N-[5-(trifluoromethyl)-3-pyridyl]benzamide], the values for the Ki at DDR1 and on DDR2 were less than 5 nM and 5 to 25 nM, respectively.
Taken in the same sequence, the figures for `Cc1ccc(C(=O)Nc2cncc(C(F)(F)F)c2)cc1[C@@H]1CCN(c2cncc(C(N)=O)c2)C1` [Example 1, (S)-5-(3-(2-methyl-5-((5-(trifluoromethyl)pyridin-3-yl)carbamoyl)phenyl)pyrrolidin-1-yl)nicotinamide] were less than 5 nM and less than 5 nM.
As for `Cc1ccc(C(=O)Nc2cncc(C(F)(F)F)c2)cc1[C@H]1CCN(c2cncc(C(N)=O)c2)C1` [Example 2, (R)-5-(3-(2-methyl-5-((5-(trifluoromethyl)pyridin-3-yl)carbamoyl)phenyl)pyrrolidin-1-yl)nicotinamide], the values for the Ki at DDR1 and at DDR2 were less than 5 nM and 5 to 25 nM, respectively.
With `Cc1ccc(C(=O)Nc2cc(C(C)(C)C)n(C)n2)cc1[C@@H]1CCN(c2cncc(C(N)=O)c2)C1` [Example 3, (S)-5-(3-(5-((5-(tert-butyl)-1-methyl-1H-pyrazol-3-yl)carbamoyl)-2-methylphenyl)pyrrolidin-1-yl)nicotinamide], the Ki at DDR1 and at DDR2 was less than 5 nM in each case.
Consider `Cc1ccc(C(=O)Nc2cc(C(C)(C)C(F)(F)F)on2)cc1[C@@H]1CCN(c2cncc(C(N)=O)c2)C1` [Example 4, (S)-5-(3-(2-methyl-5-((5-(1,1,1-trifluoro-2-methylpropan-2-yl)isoxazol-3-yl)carbamoyl)phenyl)pyrrolidin-1-yl)nicotinamide], for which the Ki on DDR1 and on DDR2 was less than 5 nM in each case.
With `Cc1ccc(C(=O)Nc2cc(C(C)(C)C)nn2C)cc1[C@@H]1CCN(c2cncc(C(N)=O)c2)C1` [Example 5, (S)-5-(3-(5-((3-(tert-butyl)-1-methyl-1H-pyrazol-5-yl)carbamoyl)-2-methylphenyl)pyrrolidin-1-yl)nicotinamide], the Ki is less than 5 nM at DDR1 and 5 to 25 nM at DDR2.
The corresponding values for `Cc1ccc(C(=O)Nc2cc(C(C)(C)C)no2)cc1[C@@H]1CCN(c2cncc(C(N)=O)c2)C1` [Example 6, (S)-5-(3-(5-((3-(tert-butyl)isoxazol-5-yl)carbamoyl)-2-methylphenyl)pyrrolidin-1-yl)nicotinamide] are less than 5 nM and less than 5 nM.
For `Cc1ccc(C(=O)Nc2cc(C(C)(C)C)no2)cc1[C@@H]1CCN(c2cncc(C#N)c2)C1` [Example 7, (S)—N-(3-(tert-butyl)isoxazol-5-yl)-3-(1-(5-cyanopyridin-3-yl)pyrrolidin-3-yl)-4-methylbenzamide], the Ki is less than 5 nM on DDR1 and 5 to 25 nM at DDR2.

Broadly, the Ki is a dissociation constant, usually derived from enzyme kinetics or from competition with a known ligand.
